# Paper PMC8639922, “KSHV transactivator-derived small peptide traps coactivators to attenuate MYC and inhibits leukemia and lymphoma cell growth” (Communications Biology, 2021)
# Square brackets hold non-standard residues; d marks the D form. Peptide text beside a SMILES is read from it. Orn = NCCC[C@H](N)C(=O)O; βAla = NCCC(=O)O
# Tested on: MYC promoter and putative enhancer regions
# Assay: CUT&RUN qPCR, H3K27Ac modification
# Format: cell-based, human
# Parameters: key: enrichment normalized to spiked-in luciferase plasmid DNA control
# Details: spiked-in luciferase plasmid control
# Source text: We next examined the molecular mechanism of MYC down-regulation by VGN50. We first utilized Cleavage under targets & release using nuclease (CUT&RUN)-sequencing to examine histone modifications that are known to be associated with enhancers in order to map putative MYC enhancer regions in PEL cells (Fig. 5a). Genome-wide CUT&RUN studies identified putative enhancer and promoter regulatory regions that are marked by H3K27Ac, H3K4me1, POLR2A (RNAPII), BRD4, and SMARCC1, a component of the SWI/SNF complex (Fig. 1b and 5a). The identified putative MYC enhancers were also in good agreement with previous ChIP Hi-C[53] and ChIP-seq data sets[54]. Specific primer pairs were then designed to amplify the respective enhancer regions and to examine regulation of coactivator complex recruitment by VGN50.
# Fig. 5 A molecular mechanism of VGN50-mediated MYC-down-regulation. a Cleavage under targets & release using nuclease (CUT&RUN). CUT&RUN was performed with BCBL-1 and BC-1 with the indicated antibodies. Enrichment of active histone modifications, and occupancies of RNAPII and SWI/SNF components at the MYC genomic region are shown as peaks. One of the biological duplicate samples for the BCBL-1 cell line is presented. […] The MYC promoter, enhancer, and negative control regions used for qPCR analyses are indicated with shading. The positions of the MYC coding region, CASC11 coding region, and long non-coding RNA, PVT1, MIR1208 are shown in the panel. b VGN50 inhibits coactivator complex recruitment and c reduces H3K27Ac modification. qPCR is used to examine enrichment of DNA fragments in the presence of VGN50 or mutant peptide (24 μM). Peptide was applied 1 h prior to processing samples for CUT&RUN to replicate SLAM-seq experimental conditions. Non-specific IgG control was also included and enrichment with IgG control at each genomic region was set as 1 for b, and spiked-in luciferase plasmid DNA was used for additional internal control for c. d Formation of a larger protein complex with VGN50. Sucrose gradient sedimentation was used to monitor changes in protein complex formation in the presence of VGN50. The experiment flow chart is shown at the top of this panel. Fractions were collected from top (#1) to bottom (#23/24). Sample #24 without peptide is a smaller fraction of residual samples. Immunoblotting was performed on the odd number samples and the remaining fraction (#24 for no peptide sample) and probed with Flag-tagged SWI/SNF components (SMARCA4, SMARCC2, and SMARCB1). The position of each protein component based on molecular size is indicated. e KSHV K-Rta colocalizes with SWI/SNF components in reactivating BCBL-1 cells. TREx-BCBL-1 cells were triggered for reactivation by treatment with Dox and TPA for 28 h and stained with the indicated antibodies. Images were acquired with Keyence fluorescence microscopy. f A model for VGN50 molecular action. A model depicting the putative molecular action of VGN50 is presented. Coactivator complexes are dynamically assembled on enhancer and promoter regions via transcription factor binding. VGN50, an IDR fragment derived from an exceptionally potent viral transactivator, flexibly interacts with components of coactivators and traps them, thus reduces the available resources for cellular enhancers to activate MYC promoters.
# CUT&RUN[72] was performed essentially by following the online protocol developed by Dr. Henikoff’s lab with a few modifications to fit our needs. Cells were washed with PBS and wash buffer [20 mM HEPES-KOH pH 7.5, 150 mM NaCl, 0.5 mM Spermidine (Sigma, S2626), and proteinase inhibitor (Roche)]. After removing the wash buffer, cells were captured on magnetic concanavalin A (ConA) beads (Polysciences, PA, USA) in the presence of CaCl2. […]
structure (smiles),measurement,setting,value
CC(C)C[C@H](NC(=O)CCNC(=O)[C@H](CCCNC(=N)N)NC(=O)[C@H](CCCNC(=N)N)NC(=O)[C@H](CCCNC(=N)N)NC(=O)[C@H](CCCN)NC(=O)[C@H](CCCNC(=N)N)NC(=O)[C@H](CCCNC(=N)N)NC(=O)[C@H](CCCCN)NC(=O)[C@H](CCCCN)NC(=O)[C@H](N)CCCNC(=N)N)C(=O)N[C@@H](CO)C(=O)N[C@@H](CO)C(=O)N[C@@H](C)C(=O)N[C@@H](C)C(=O)N[C@@H](C)C(=O)NCC(=O)N[C@@H](CC(C)C)C(=O)N[C@@H](Cc1ccc(O)cc1)C(=O)N[C@@H](CCC(N)=O)C(=O)N[C@@H](CC(C)C)C(=O)N[C@@H](CC(=O)O)C(=O)N[C@H](C(=O)O)[C@@H](C)O [Mt-P] (H-[dR]KKRR[Orn]RRR[βAla]LSSAAAGLYQLDT-OH; N-terminus and C-terminus assumed),"H3K27Ac enrichment, CUT&RUN qPCR","region Cont., peptide 24 μM 1 h, replicate 1",1.234
same,"H3K27Ac enrichment, CUT&RUN qPCR","region Cont., peptide 24 μM 1 h, replicate 2",1.768
same,"H3K27Ac enrichment, CUT&RUN qPCR","region Cont., peptide 24 μM 1 h, replicate 3",1.486
same,"H3K27Ac enrichment, CUT&RUN qPCR","region E3, peptide 24 μM 1 h, replicate 1",2.706
same,"H3K27Ac enrichment, CUT&RUN qPCR","region E3, peptide 24 μM 1 h, replicate 2",2.727
same,"H3K27Ac enrichment, CUT&RUN qPCR","region E3, peptide 24 μM 1 h, replicate 3",2.006
same,"H3K27Ac enrichment, CUT&RUN qPCR","region E4, peptide 24 μM 1 h, replicate 1",25.383
same,"H3K27Ac enrichment, CUT&RUN qPCR","region E4, peptide 24 μM 1 h, replicate 2",24.888
same,"H3K27Ac enrichment, CUT&RUN qPCR","region E4, peptide 24 μM 1 h, replicate 3",21.090
same,"H3K27Ac enrichment, CUT&RUN qPCR","region E5, peptide 24 μM 1 h, replicate 1",8.581
same,"H3K27Ac enrichment, CUT&RUN qPCR","region E5, peptide 24 μM 1 h, replicate 2",8.863
same,"H3K27Ac enrichment, CUT&RUN qPCR","region E5, peptide 24 μM 1 h, replicate 3",8.913
same,"H3K27Ac enrichment, CUT&RUN qPCR","region P1, peptide 24 μM 1 h, replicate 1",6.685
same,"H3K27Ac enrichment, CUT&RUN qPCR","region P1, peptide 24 μM 1 h, replicate 2",5.570
same,"H3K27Ac enrichment, CUT&RUN qPCR","region P1, peptide 24 μM 1 h, replicate 3",7.094
